Results reported in US12466839B2, “Allosteric AKT inhibitors for use in the treatment of Hereditary Hemorrhagic Telangiectasia” (VADERIS THERAPEUTICS AG, priority 2020, dated 2025).

Legend:
M3 = target: T1, M3 (Homo sapiens, UniProt P20309); test: Millipore Drug Discovery Safety and Liability Panel; type: cell-based
T1 construct: purchased Millipore

ADRA2A = target: T2, ADRA2A (Homo sapiens, UniProt P08913); test: as above; type: cell-based
T2 construct: purchased Millipore

tumor xenograft = test: Tumor xenograft model; type: in vivo
HCN4 = HCN4 (Homo sapiens, UniProt Q9Y3Q4); test: Cardiac ion channel profile; type: cell-based
CXCR1 = target: T3, CXCR1 (Homo sapiens, UniProt P25024); test: Millipore Drug Discovery Safety and Liability Panel; type: cell-based
T3 construct: purchased Millipore
T3 sequence (P25024 whole entry): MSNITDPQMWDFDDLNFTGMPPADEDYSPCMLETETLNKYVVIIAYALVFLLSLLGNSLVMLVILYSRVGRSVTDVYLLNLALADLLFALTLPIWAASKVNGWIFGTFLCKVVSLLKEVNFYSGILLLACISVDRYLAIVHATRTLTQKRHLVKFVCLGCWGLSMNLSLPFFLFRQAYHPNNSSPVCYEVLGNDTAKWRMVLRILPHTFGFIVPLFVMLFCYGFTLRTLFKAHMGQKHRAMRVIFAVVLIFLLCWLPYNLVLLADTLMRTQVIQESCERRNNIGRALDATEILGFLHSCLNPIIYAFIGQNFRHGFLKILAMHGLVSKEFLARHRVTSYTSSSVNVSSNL

A2A = target: T4, A2A (Homo sapiens, UniProt P29274); test: as above; type: cell-based
T4 construct: purchased Millipore

BLT1 = target: T5, BLT1 (Homo sapiens, UniProt Q15722); test: as above; type: cell-based
T5 construct: purchased Millipore
T5 sequence (Q15722 whole entry): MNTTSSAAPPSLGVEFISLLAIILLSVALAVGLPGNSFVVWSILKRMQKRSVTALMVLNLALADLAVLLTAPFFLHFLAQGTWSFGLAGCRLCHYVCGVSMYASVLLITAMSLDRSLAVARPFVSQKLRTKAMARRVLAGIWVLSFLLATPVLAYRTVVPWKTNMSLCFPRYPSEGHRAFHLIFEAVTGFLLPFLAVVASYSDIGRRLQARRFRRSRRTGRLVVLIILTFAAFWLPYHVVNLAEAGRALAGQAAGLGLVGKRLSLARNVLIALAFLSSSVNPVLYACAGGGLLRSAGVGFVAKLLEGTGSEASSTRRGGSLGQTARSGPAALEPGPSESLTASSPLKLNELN

ADRA1A = target: T6, ADRA1A (Homo sapiens, UniProt P35348); test: as above; type: cell-based
T6 construct: purchased Millipore
T6 sequence (P35348 whole entry): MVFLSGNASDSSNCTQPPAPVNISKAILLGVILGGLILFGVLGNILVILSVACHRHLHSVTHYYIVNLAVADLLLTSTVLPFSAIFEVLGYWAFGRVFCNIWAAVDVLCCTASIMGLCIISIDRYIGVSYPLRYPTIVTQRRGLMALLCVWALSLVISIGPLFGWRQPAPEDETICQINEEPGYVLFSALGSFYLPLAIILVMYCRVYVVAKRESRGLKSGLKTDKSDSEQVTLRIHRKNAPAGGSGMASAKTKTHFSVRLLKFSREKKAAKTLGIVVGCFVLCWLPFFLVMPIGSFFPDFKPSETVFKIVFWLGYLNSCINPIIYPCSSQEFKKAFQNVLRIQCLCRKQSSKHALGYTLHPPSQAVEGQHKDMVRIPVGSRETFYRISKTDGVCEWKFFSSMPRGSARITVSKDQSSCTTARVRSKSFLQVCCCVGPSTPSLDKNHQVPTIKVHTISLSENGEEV

5-HT2A = target: T7, 5-HT2A (Homo sapiens, UniProt P28223); test: as above; type: cell-based
T7 construct: purchased Millipore
T7 sequence (P28223 whole entry): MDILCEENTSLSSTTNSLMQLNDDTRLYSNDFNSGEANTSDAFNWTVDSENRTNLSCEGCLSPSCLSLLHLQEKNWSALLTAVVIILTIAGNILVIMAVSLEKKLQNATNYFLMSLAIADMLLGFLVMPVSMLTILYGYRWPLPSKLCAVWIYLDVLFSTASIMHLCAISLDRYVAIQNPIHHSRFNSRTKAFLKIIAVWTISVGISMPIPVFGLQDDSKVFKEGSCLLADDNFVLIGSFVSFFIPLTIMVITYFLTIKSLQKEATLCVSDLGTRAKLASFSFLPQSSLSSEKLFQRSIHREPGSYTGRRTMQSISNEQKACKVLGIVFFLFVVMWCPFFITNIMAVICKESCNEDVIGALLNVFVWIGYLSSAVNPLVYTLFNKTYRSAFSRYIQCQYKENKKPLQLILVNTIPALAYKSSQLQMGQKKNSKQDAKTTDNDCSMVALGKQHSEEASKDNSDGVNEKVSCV

CCR1 = target: T8, CCR1 (Homo sapiens, UniProt P32246); test: as above; type: cell-based
T8 construct: purchased Millipore
T8 sequence (P32246 whole entry): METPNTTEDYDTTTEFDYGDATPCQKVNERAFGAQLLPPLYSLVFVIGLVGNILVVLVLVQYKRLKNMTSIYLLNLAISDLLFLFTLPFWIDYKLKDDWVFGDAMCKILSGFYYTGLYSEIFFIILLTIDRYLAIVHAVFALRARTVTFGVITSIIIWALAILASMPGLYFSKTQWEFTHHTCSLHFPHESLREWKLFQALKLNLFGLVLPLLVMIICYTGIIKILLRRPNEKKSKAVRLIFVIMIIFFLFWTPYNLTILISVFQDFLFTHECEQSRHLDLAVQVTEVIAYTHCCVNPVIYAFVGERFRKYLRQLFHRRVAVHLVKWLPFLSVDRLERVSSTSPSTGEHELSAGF

[1] = tested on: mutated forms of all three AKT isoforms containing inactive pleckstrin homology (PH) domains; test: Biochemical kinase assay, PH-domain mutants
D2 = target: T9, D2 (Homo sapiens, UniProt P14416); test: Millipore Drug Discovery Safety and Liability Panel; type: cell-based
T9 construct: purchased Millipore

ETB = target: T10, ETB (Homo sapiens, UniProt P24530); test: as above; type: cell-based
T10 construct: purchased Millipore
T10 sequence (P24530 27-442, species assumed): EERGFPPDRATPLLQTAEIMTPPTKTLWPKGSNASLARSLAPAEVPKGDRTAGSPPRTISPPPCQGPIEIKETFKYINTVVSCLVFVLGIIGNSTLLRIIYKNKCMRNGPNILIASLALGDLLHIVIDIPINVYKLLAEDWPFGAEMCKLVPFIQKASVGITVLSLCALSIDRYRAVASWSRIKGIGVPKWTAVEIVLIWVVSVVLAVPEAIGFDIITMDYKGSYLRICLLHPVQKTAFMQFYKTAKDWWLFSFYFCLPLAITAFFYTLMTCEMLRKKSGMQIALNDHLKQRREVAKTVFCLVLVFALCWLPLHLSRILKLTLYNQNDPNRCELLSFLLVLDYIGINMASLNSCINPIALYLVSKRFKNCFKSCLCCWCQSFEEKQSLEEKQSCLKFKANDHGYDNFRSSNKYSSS

LPA1 = target: T11, LPA1 (Homo sapiens, UniProt Q92633); test: as above; type: cell-based
T11 construct: purchased Millipore
T11 sequence (Q92633 whole entry, species assumed): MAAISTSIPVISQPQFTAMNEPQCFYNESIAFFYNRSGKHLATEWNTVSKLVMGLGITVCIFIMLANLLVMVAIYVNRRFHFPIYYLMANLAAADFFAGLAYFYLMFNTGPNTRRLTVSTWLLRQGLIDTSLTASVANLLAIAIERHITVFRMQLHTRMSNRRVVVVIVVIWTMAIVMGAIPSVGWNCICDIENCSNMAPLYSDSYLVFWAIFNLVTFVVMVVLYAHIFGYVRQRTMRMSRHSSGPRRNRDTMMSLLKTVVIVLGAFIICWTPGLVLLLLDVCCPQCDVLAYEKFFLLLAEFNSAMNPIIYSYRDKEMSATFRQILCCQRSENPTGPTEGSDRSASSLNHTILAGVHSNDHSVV

MCF7 tumor cells = test: IC50 in MCF7 tumor cells in vitro; type: cell-based; settings: Homo sapiens
A3 = target: T12, A3 (Homo sapiens, UniProt P0DMS8); test: Millipore Drug Discovery Safety and Liability Panel; type: cell-based
T12 construct: purchased Millipore
T12 sequence (P0DMS8 whole entry): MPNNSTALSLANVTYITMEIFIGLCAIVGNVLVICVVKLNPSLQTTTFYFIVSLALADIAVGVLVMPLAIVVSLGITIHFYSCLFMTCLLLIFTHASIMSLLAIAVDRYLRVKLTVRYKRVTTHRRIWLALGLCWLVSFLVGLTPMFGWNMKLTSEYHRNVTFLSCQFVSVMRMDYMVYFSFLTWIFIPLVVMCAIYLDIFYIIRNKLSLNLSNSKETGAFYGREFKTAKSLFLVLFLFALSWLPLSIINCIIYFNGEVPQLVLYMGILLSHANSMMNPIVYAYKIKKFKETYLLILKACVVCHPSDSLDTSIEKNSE

AKT2 = AKT2 (Homo sapiens, UniProt P31751); test: Panel of 450 kinases; type: biochemical
CB1 = target: T13, CB1 (Homo sapiens, UniProt P21554); test: Millipore Drug Discovery Safety and Liability Panel; type: cell-based
T13 construct: purchased Millipore

5-HT1A = target: T14, 5-HT1A (Homo sapiens, UniProt P08908); test: as above; type: cell-based
T14 construct: purchased Millipore

OX1 = target: T15, OX1 (Homo sapiens, UniProt O43613); test: as above; type: cell-based
T15 construct: Millipore
T15 sequence (O43613 whole entry): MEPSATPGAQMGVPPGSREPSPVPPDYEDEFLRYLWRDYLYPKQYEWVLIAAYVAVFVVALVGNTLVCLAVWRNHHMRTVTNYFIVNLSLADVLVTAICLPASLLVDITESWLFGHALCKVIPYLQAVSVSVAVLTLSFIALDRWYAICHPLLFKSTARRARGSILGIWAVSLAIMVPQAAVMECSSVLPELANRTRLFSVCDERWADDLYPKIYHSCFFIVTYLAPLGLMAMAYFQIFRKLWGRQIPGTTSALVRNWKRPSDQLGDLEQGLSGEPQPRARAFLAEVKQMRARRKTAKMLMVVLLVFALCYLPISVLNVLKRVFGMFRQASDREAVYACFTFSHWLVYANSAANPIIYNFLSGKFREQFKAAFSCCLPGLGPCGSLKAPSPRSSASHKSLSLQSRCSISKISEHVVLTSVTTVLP

CCR2B = target: T16, CCR2B (Homo sapiens, UniProt P41597); test: as above; type: cell-based
T16 construct: purchased Millipore
T16 sequence (P41597 1-360 isoform P41597-2): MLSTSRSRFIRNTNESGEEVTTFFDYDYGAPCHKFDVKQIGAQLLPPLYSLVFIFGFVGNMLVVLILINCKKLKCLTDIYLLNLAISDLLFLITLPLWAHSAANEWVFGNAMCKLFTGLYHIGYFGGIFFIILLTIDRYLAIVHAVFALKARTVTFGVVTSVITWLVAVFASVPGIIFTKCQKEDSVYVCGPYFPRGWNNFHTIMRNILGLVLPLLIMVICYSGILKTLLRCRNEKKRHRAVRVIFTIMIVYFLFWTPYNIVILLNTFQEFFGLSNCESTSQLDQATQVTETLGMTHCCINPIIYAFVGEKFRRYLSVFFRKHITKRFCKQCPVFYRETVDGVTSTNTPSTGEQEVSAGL

VPAC1 = target: T17, VPAC1 (Homo sapiens, UniProt P32241); test: as above; type: cell-based
T17 construct: Millipore

[2] = read-out: ANTAGONIST mean % inhibition
[3] = read-out: AGONIST mean % increase in activity

T1 sequence (P20309 whole entry): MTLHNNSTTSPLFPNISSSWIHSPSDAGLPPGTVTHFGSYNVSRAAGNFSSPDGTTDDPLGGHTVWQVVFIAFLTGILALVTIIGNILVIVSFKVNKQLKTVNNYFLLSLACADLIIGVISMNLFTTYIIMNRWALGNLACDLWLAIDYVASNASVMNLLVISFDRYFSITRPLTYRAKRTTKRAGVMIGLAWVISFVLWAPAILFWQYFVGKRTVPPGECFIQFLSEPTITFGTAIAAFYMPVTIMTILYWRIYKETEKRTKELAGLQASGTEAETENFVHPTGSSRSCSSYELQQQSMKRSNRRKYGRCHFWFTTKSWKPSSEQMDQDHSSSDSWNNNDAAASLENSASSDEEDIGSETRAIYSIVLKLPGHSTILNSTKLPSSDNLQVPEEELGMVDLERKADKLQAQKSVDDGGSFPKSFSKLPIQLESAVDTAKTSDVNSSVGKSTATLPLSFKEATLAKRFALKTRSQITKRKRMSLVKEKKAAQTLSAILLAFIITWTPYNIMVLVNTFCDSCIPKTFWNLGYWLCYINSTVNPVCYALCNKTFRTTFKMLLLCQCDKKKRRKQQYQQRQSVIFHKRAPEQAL
T2 sequence (P08913 whole entry): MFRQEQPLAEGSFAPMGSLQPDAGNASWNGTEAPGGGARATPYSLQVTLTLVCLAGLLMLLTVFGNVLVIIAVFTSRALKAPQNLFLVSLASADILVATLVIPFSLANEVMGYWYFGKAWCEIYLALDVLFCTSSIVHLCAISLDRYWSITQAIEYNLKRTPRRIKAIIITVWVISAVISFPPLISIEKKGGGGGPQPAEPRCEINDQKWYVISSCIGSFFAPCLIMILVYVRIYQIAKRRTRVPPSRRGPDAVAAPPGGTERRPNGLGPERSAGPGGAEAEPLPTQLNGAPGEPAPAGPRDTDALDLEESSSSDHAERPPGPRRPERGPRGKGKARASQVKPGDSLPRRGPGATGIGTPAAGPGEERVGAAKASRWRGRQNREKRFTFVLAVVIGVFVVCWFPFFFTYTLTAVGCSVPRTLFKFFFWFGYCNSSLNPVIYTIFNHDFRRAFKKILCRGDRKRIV

CCN1C(=O)COc2nc(-c3ccc(C4(N)CC(O)C4)cc3)c(-c3ccccc3)cc21.O=C(O)C(O)C(O)C(=O)O [VAD044, 6-(4-(1-amino-3-hydroxycyclobutyl)phenyl)-1-ethyl-7-phenyl-1H-pyrido[2,3-b][1,4]oxazin-2(3H)-one L-tartrate]
activation at 10 µM (M3; M3, 10 μM, read-out: AGONIST mean % increase in activity): -0.5%
inhibition at 10 µM (M3; [2]): 5.3%
activation at 10 µM (ADRA2A; ADRA2A, 10 μM, read-out: AGONIST mean % increase in activity): -0.2%
inhibition at 10 µM (ADRA2A; [2]): 11.8%
minimal effective dose in vivo (tumor xenograft): 30 mg/kg
inhibition at 10 µM (HCN4): < 25%
activation at 10 µM (CXCR1; CXCR1, 10 μM, read-out: AGONIST mean % increase in activity): -0.3%
inhibition at 10 µM (CXCR1; [2]): 3.7%
AGONIST mean % increase in activity (A2A; A2A, 10 μM): 2.3%
inhibition at 10 µM (A2A; [2]): 12.5%
activation at 10 µM (BLT1; BLT1, 10 μM, read-out: AGONIST mean % increase in activity): -0.2%
inhibition at 10 µM (BLT1; [2]): 5.6%
activation at 10 µM (ADRA1A; ADRA1A, 10 μM, read-out: AGONIST mean % increase in activity): -0.7%
inhibition at 10 µM (ADRA1A; [2]): 9.9%
activation at 10 µM (5-HT2A; [3]): 1.3%
inhibition at 10 µM (5-HT2A; [2]): -0.7%
activation at 10 µM (CCR1; CCR1, 10 μM, read-out: AGONIST mean % increase in activity): 0.2%
inhibition at 10 µM (CCR1; [2]): 9.5%
inhibition of mutated AKT forms [1]: not inhibited
activation at 10 µM (D2; D2, 10 μM, read-out: AGONIST mean % increase in activity): -1.1%
inhibition at 10 µM (D2; [2]): -0.2%
activation at 10 µM (ETB; ETB, 10 μM, read-out: AGONIST mean % increase in activity): -1.1%
inhibition at 10 µM (ETB; [2]): 2.9%
activation at 10 µM (LPA1; [3]): -1.3%
inhibition at 10 µM (LPA1; [2]): 57.4%
IC50 (MCF7 tumor cells): ~0.05 µM
activation at 10 µM (A3; [3]): 0.2%
inhibition at 10 µM (A3; [2]): 28.5%
inhibition at 10 µM (AKT2): 95%
activation at 10 µM (CB1; CB1, 10 μM, read-out: AGONIST mean % increase in activity): -0.5%
inhibition at 10 µM (CB1; [2]): -4.1%
activation at 10 µM (5-HT1A; [3]): 2.1%
inhibition at 10 µM (5-HT1A; [2]): 30.6%
activation at 10 µM (OX1; OX1, 10 μM, read-out: AGONIST mean % increase in activity): -1.8%
inhibition at 10 µM (OX1; [2]): -3.8%
activation at 10 µM (CCR2B; CCR2B, 10 μM, read-out: AGONIST mean % increase in activity): -0.1%
inhibition at 10 µM (CCR2B; [2]): 9.1%
activation at 10 µM (VPAC1; VPAC1, 10 μM, read-out: AGONIST mean % increase in activity): -0.7%
inhibition at 10 µM (VPAC1; [2]): 8.5%
